Numbers after ± are expanded uncertainties.
How the values were obtained:
[1] = Crystal; DTA
[2] = Molar enthalpy of transition or fusion; details: Crystal; DSC

Q: Which results are given for `CCCCCCCCCCCCCCCCCC` [octadecane]?
A: Normal melting temperature [1]: 28.40 ± 4 °C; Molar enthalpy of transition or fusion [2]: 13.8 ± 0.86 kcal/mol
